From patent publication US9682925B2, “Cyclopropaneamine compound” (TAKEDA PHARMACEUTICAL COMPANY LIMITED, priority 2011, dated 2017)
Structures can show the parent of a compound that is named as a salt.

Columns and labels:
Type in all cases: biochemical
[1] = target: T1, human LSD1(171-852) (Homo sapiens, UniProt O60341); experiment: Measurement of LSD1 inhibitory activity (time-resolved fluorescence, biotin-histone H3 mono methylated K4 peptide); settings: read-out: LSD1 IC50 value
T1 construct: to give hLSD1(171-852) purified product; made in house; host or cells: Escherichia coli C43(DE3) pLysS
Description: When the turbidity reached 600 Klett units, the culture temperature was changed to 16° C., IPTG having a final concentration of 0.5 mM was added to induce expression, and the cells were cultured further for 21 hr. The culture medium was centrifuged at 9,000 g for 10 min, and Escherichia coli pellets were recovered.
Escherichia coli pellets in 9 L of the culture medium were suspended in 1340 mL of an extraction buffer (PBS, 5% (V/V) Glycerol), and 6700 units of Benzonase (Merck) were added. Using Branson ultrasonic disintegrator, the suspension was disrupted by ultrasonication for 3 min, and centrifuged at 33,000 g for 20 min, and the supernatant was recovered.
(5) Measurement of LSD1 Inhibitory Activity
After reaction at room temperature for 20 min, 1 mM 2-PCPA solution (5 μL) was added to terminate the reaction. A detection solution (800 mM potassium fluoride, 0.1% BSA) containing europium-labeled antihistone H3 antibody (Wako Pure Chemical Industries, Ltd.) and Streptavidin-XL665 (Cisbio) was further added by 5 μL, and the mixture was left standing for 60 min. A time-resolved fluorescence (excitation 320 nm, emission 615 nm, 665 nm) was measured by Envision (PerkinElmer). The LSD1 inhibitory rate (%) of the test compound was calculated by the following formula. inhibitory rate (%)=(1−(test compound count−blank)÷(control−blank)×100
The count of the LSD1 enzyme reaction mixture under compound non-addition conditions is indicated as control, and the count under compound non-addition and LSD1 enzyme non-addition conditions is indicated as blank.

[2] = target: T2, MAO-A (Homo sapiens, UniProt P21397); experiment: Measurement of MAO-A inhibitory activity (MAO-Glo Assay)
T2 construct: purchased Sigma-Aldrich Co. LLC
T2 sequence (P21397 1-527): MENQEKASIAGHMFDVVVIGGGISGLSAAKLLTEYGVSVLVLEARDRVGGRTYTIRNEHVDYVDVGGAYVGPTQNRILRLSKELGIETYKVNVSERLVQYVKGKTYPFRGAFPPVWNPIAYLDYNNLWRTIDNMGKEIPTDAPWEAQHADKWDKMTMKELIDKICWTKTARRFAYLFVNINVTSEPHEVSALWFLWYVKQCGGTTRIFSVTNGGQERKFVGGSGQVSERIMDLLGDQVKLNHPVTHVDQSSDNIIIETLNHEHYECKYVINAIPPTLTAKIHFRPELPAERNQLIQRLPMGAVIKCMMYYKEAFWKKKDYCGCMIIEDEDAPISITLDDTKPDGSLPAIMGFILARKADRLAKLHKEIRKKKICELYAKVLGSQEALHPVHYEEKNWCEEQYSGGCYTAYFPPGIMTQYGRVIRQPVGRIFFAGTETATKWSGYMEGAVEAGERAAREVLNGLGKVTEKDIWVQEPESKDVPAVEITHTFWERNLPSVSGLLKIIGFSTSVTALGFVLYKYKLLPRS
Description: (1) Measurement of MAO-A Inhibitory Activity
The MAO-A inhibitory activity evaluation described below followed the protocol of MAO-Glo (registered trademark) Assay of Promega KK.
(§1) A test compound dissolved in 4% DMSO was added by 12.5 μL to 25 μL reaction solution (100 mM HEPES (pH 7.5), 5% glycerol) containing 400 ng of MAO-A enzyme (Sigma-Aldrich Co. LLC.), and the mixture was reacted at room temperature for 10 min. MAO substrate (Promega KK) (160 μM) was added by 12.5 μL to start the reaction. After reaction at room temperature for 60 min, Luciferine detection reagent (Promega KK) (50 μL) was added to terminate the reaction. After reaction at room temperature for 20 min with stirring, the luminescence was measured by Envision (PerkinElmer). The MAO-A inhibitory rate (%) of the test compound was calculated by the following formula. inhibitory rate (%)=(1−(test compound count−blank)÷(control−blank)×100
The count of the MAO-A enzyme reaction mixture under compound non-addition conditions is indicated as control, and the count under compound non-addition and MAO-A enzyme non-addition conditions is indicated as blank.

[3] = target: T3, MAO-B (Homo sapiens, UniProt P27338); experiment: Measurement of MAO-B inhibitory activity (MAO-Glo Assay)
T3 construct: purchased Sigma-Aldrich Co. LLC
T3 sequence (P27338 1-520): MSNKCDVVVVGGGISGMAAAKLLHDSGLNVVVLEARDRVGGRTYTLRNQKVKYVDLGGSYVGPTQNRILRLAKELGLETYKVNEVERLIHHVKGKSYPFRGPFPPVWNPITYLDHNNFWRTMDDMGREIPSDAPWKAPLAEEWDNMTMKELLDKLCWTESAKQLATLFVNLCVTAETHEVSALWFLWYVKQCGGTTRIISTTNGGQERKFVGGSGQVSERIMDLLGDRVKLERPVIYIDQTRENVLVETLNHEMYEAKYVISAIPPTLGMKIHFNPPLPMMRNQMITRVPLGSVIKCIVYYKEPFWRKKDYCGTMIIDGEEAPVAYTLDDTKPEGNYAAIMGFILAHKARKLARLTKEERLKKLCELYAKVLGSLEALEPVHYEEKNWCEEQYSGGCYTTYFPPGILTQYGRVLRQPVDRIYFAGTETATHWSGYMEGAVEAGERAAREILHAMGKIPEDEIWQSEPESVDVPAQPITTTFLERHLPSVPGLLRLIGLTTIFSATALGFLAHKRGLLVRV
Description: (2) Measurement of MAO-B Inhibitory Activity
The MAO-B inhibitory activity evaluation described below followed the protocol of MAO-Glo (registered trademark) Assay of Promega KK.
as §1, with “glycerol, 10% DMSO)” for “glycerol)”, “MAO-B” for “MAO-A”, “(16” for “(160”
The count of the MAO-B enzyme reaction mixture under compound non-addition conditions is indicated as control, and the count under compound non-addition and MAO-B enzyme non-addition conditions is indicated as blank.

Row | IC50 [1] [µM] | IC50 [2] [µM] | IC50 [3] [µM] | Structure (SMILES)
1 | < 0.1 | > 10 | > 10 | CN1CCC(N[C@@H]2C[C@H]2c2ccc(N(C)C(=O)c3cccc(C(F)(F)F)c3)cc2)CC1 (relative stereo) [Example 150, N-methyl-N-(4-{trans-2-[(1-methylpiperidin-4-yl)amino]cyclopropyl}phenyl)-3-(trifluoromethyl)benzamide dihydrochloride]
2 | < 0.1 | > 10 | > 10 | CS(=O)(=O)c1cccc(C(=O)Nc2ccc([C@@H]3C[C@H]3NCC3CC3)cc2)c1 (relative stereo) [Example 91, N-(4-{trans-2-[(cyclopropylmethyl)amino]cyclopropyl}-phenyl)-3-(methylsulfonyl)-benzamide]
3 | < 0.1 | > 10 | > 10 | O=C(Nc1ccc([C@@H]2C[C@H]2NCC2CC2)cc1)c1cc(-c2ccccc2)on1 (relative stereo) [Example 93, N-(4-{trans-2-[(cyclopropylmethyl)-amino]cyclopropyl}-phenyl)-5-phenyl-1,2-oxazole-3-carboxamide]
4 | < 0.1 | 4.4 | 9 | O=C(Nc1ccc([C@@H]2C[C@H]2NCc2ccccc2)cc1)c1cccc(Br)c1 (relative stereo) [Example 3, N-{4-[trans-2-(benzylamino)cyclopropyl]phenyl}-3-bromobenzamide]
5 | < 0.1 | 7.5 | > 10 | O=C(Nc1ccc([C@@H]2C[C@H]2NCC2CC2)cc1)c1ccc(-n2cccc2)cc1 (relative stereo) [Example 117, N-(4-{trans-2-[(cyclopropylmethyl)amino]cyclopropyl}-phenyl)-4-(1H-pyrrol-1-yl)benzamide]
6 | 0.58 | 1.7 | > 10 | O=C(Nc1ccc([C@@H]2C[C@H]2N2CCCC2)cc1)c1ccccc1 (relative stereo) [Example 30, N-{4-[trans-2-(pyrrolidin-1-yl)cyclopropyl]phenyl}benzamide hydrochloride]
7 | < 0.1 | 3.8 | 9.7 | O=C(Nc1ccc([C@@H]2C[C@H]2NCc2ccccc2)cc1)c1ccccc1 (relative stereo) [Example 1, N-{4-[trans-2-(benzylamino)cyclopropyl]phenyl}benzamide]
8 | < 0.1 | > 10 | > 10 | O=C(Nc1ccc([C@@H]2C[C@H]2NCC2CC2)cc1)c1ccccc1 (relative stereo) [Example 140, N-(4-{trans-2-[(cyclopropylmethyl)amino]cyclopropyl}phenyl)benzamide hydrochloride]
9 | < 0.1 | > 10 | > 10 | Cc1cc(C(=O)Nc2ccc([C@@H]3C[C@H]3NCC3CC3)cc2)n(C)n1 (relative stereo) [Example 156, N-(4-{trans-2-[(cyclopropylmethyl)amino]cyclopropyl}phenyl)-1,3-dimethyl-1H-pyrazole-5-carboxamide dihydrochloride]
10 | < 0.1 | > 10 | > 10 | Cc1c(C(=O)Nc2ccc([C@@H]3C[C@H]3NCC3CC3)cc2)cnn1-c1ccccc1 (relative stereo) [Example 121, N-(4-{trans-2-[(cyclopropylmethyl)amino]cyclopropyl}-phenyl)-5-methyl-1-phenyl-1H-pyrazole-4-carboxamide]
11 | < 0.1 | 5 | > 10 | O=C(Nc1ccc([C@@H]2C[C@H]2NCC2CC2)cc1)c1ccc(-c2ccccc2)o1 (relative stereo) [Example 123, N-(4-{trans-2-[(cyclopropyl-methyl)amino]cyclo-propyl}phenyl)-5-phenyl-2-furamide]
12 | < 0.1 | > 10 | > 10 | O=C(Nc1ccc([C@@H]2C[C@H]2NCc2ccccc2)cc1)c1cccc(N2CCCCC2=O)c1 (relative stereo) [Example 33, N-{4-[trans-2-(benzylamino)cyclopropyl]phenyl}-3-(2-oxopiperidin-1-yl)benzamide]
13 | < 0.1 | > 10 | > 10 | O=C(Nc1ccc([C@@H]2C[C@H]2NC2CCN(C3CC3)CC2)cc1)c1cccc(C(F)(F)F)c1 (relative stereo) [Example 111, N-(4-{trans-2-[(1-cyclopropylpiperidin-4-yl)amino]cyclopropyl}phenyl)-3-(trifluoromethyl)benzamide dihydrochloride]
14 |  | > 10 | > 10 | Cn1cc(C(=O)Nc2ccc([C@@H]3C[C@H]3NCC3CC3)cc2)cn1 (relative stereo) [Example 163, N-(4-{trans-2-[(cyclopropylmethyl)amino]cyclopropyl}phenyl)-1-methyl-1H-pyrazole-4-carboxamide hydrochloride]
15 | < 0.1 |  | 8.1 | O=C(Nc1ccc([C@@H]2C[C@H]2NCC2CC2)cc1)c1cc(C(F)(F)F)ccc1F (relative stereo) [Example 73, N-(4-{trans-2-[(cyclopropylmethyl)amino]cyclopropyl}phenyl)-2-fluoro-5-(trifluoromethyl)benzamide hydrochloride]
16 |  | > 10 | > 10 | O=C(Nc1ccc([C@H]2C[C@@H]2NCC2CC2)cc1)c1ccc(-c2ccccc2)cc1 (single isomer, unassigned) [Example 165, N-(4-{(1R,2S) or (1S,2R)-2-[(cyclopropylmethyl)amino]cyclopropyl}phenyl)biphenyl-4-carboxamide hydrochloride]

Row | Structure (SMILES) | IC50 [1] [µM] | IC50 [2] [µM] | IC50 [3] [µM]
17 | O=C(Nc1ccc([C@@H]2C[C@H]2NCC2CC2)cc1)c1ccc(-c2ccccc2)cc1 (single isomer, unassigned) [Example 166, N-(4-{(1S,2R) or (1R,2S)-2-[(cyclopropylmethyl)amino]cyclopropyl}phenyl)biphenyl-4-carboxamide hydrochloride] |  | > 10 | > 10
